Source: ChEMBL document CHEMBL1770103, “Synthesis and biological evaluation of dibenz[b,f][1,5]oxazocine derivatives for agonist activity at κ-opioid receptor” (Eur J Med Chem, 2011)
Calls of active or inactive are those of the source. The rule behind the calls is not given here.

What was measured:
[1] = target: Kappa-type opioid receptor (Mus musculus) (UniProt P33534); experiment: Displacement of [125I]dynorphin from kappa opioid receptor in BALB/c mouse brain membrane at 5 uM by liquid scintillation counting relative to control; assay type: cell membranes
Sequence of Kappa-type opioid receptor (Mus musculus) (P33534 whole entry): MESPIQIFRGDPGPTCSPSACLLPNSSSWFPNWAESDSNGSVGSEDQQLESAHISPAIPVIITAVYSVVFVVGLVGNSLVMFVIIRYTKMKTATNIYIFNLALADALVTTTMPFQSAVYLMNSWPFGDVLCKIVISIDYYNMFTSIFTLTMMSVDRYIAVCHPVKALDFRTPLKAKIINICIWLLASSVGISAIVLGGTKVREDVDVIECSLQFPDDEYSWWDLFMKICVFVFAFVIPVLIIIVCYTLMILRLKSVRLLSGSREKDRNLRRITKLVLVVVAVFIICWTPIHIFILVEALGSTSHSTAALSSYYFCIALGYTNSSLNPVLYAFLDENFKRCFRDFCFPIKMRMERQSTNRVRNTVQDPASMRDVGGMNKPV

[2] = target: Mu-type opioid receptor (Mus musculus) (UniProt P42866); conditions: BALB/c, Brain, Membrane, at 5 µM
Sequence of Mu-type opioid receptor (Mus musculus) (P42866 whole entry): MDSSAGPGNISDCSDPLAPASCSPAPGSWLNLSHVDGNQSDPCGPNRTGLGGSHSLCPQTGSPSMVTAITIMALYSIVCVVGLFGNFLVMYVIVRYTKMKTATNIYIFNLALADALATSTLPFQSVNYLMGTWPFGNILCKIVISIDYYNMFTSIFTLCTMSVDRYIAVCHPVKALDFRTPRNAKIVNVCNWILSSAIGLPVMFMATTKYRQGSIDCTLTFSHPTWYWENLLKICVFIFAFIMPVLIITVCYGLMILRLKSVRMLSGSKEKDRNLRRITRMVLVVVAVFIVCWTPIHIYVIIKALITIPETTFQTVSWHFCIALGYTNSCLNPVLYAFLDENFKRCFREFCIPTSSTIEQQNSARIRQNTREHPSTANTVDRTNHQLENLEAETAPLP
Description: Displacement of [3H]DAMGO from mu opioid receptor in BALB/c mouse brain membrane at 5 uM by liquid scintillation counting relative to control

[3] = target: Kappa-type opioid receptor (Mus musculus, UniProt P33534); experiment: Displacement of [125I]dynorphin from kappa opioid receptor in BALB/c mouse brain membrane by liquid scintillation counting; assay type: cell membranes
Sequence of Kappa-type opioid receptor (P33534 whole entry): as the sequence (P33534 whole entry) above

[4] = target: Kappa-type opioid receptor (Rattus norvegicus) (UniProt P34975); experiment: Agonist activity at kappa opioid receptor in rat C6 cells assessed as induction of ERK1/2 phosphorylation at 40 uM after 10 min by Western blot analysis in presence of KOP antagonist norBNI; assay type: functional, cell-based
Sequence of Kappa-type opioid receptor (Rattus norvegicus) (P34975 whole entry): as the sequence (P33534 whole entry) above, with D11E, S17A, S51P, A308V counted along it

SMILES	residual activity [1]	residual activity [2]	IC50 [3]	Activity [4]
COc1ccc(N2Cc3cccc(OC)c3OCc3cc4c(cc32)OCO4)cc1	101%	138%	–	–
c1ccc(N2Cc3ccccc3OCc3ccccc32)cc1	87%	80%	–	–
COc1cccc2c1OCc1cc3c(cc1N(c1ccccc1)C2)OCO3	101%	78%	–	–
COc1ccc(N2Cc3ccccc3OCc3ccccc32)cc1	81%	86%	–	–
COc1ccccc1N1Cc2cccc(OC)c2OCc2ccccc21	119%	89%	–	–
COc1ccc(N2Cc3cccc(OC)c3OCc3ccccc32)cc1	81%	90%	–	–
COc1ccc2c(c1)COc1ccccc1CN2c1ccccc1	29%	99%	2.17 µM	inactive
